Experimental data reported in patent publication US20160331779A1 (priority 2015, published 2016).
Where “and” joins values, the source holds several entries; their conditions need not be identical. Identical values can stand only once. Like-named read-outs stand apart in the source and are kept apart here.

Key:
[1] = test system: A549 cells; settings: pH 4
[2] = test system: streptokinase enzyme from S. pyogenes; test: streptokinase inactivation, clot formation enzymatic assay; assay type: biochemical; settings: streptokinase 175 U/mL incubated 1 hour; fibrin remained insoluble, glass bead remained at top
Experimental: Inactivation of streptokinase was determined by clot formation enzymatic assay (Sigma Aldrich, St. Louis, Mo.), whereby thrombin converts the soluble fibrinogen into […] (Crew 2013). In the presence of streptokinase enzyme from S. pyogenes, the insoluble fibrin is converted into soluble fibrin fragments. Several hours before the study, streptokinase 175 U/mL) was incubated with the irrigation solution for 1 hour, followed by inactivation of excess irrigation solution by adding an equal volume of 20 mM methionine for 1 hour at room temperature.
In a separate glass tube, fibrinogen solution containing borate buffer, gelatin diluent, and plasminogen were mixed by swirling, and then equilibrated at 37° C. for 3 minutes. Irrigation solution and methionine treated streptokinase was added to the solution, mixed by swirling, and equilibrated at 37° C. for 1 minute prior to the addition of thrombin. The solution was mixed by swirling and equilibrated at 37° C. for approximately 2-3 minutes to allow for clot formation. A 4 mm glass bead was added to the top of the reaction mixture, and the time for the glassbead to touch the bottom of the tube was observed. In this clot assay, 0.001 μg/mL of the hypochlorous acid completely inactivated streptokinase, causing the fibrin to remain insoluble in solution, and the glass bead to remain at the top of the reaction mixture.

[3] = 2.5% NaOCl, cited from earlier work
[4] = biological target: alpha-hemolysin toxin of S. aureus (Staphylococcus aureus, UniProt P09616); assay type: cell-based
[5] = test system: root canal microorganisms; settings: 2.5% NaOCl, after biomechanical preparation; cited from earlier work
[6] = test system: Aspergillus flavus; settings: added to the fungal growth medium prior to inoculation; cited from earlier work

Sequence of alpha-hemolysin toxin of S. aureus (P09616 27-319 limits assumed): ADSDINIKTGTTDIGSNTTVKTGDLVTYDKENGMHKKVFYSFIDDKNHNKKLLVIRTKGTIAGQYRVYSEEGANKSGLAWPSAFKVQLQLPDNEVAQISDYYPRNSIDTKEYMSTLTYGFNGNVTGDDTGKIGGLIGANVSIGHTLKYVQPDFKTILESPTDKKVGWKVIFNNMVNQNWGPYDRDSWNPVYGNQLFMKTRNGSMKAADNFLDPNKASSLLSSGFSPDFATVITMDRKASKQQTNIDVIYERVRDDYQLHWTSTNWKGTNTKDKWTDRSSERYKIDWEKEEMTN

## OCl [HOCl, hypochlorous acid]
[1]
  Dilution of wound exudate cytotoxic to A549 cells: 1:4
[2]
  concentration that completely inactivated streptokinase: 0.001 µg/mL

## [Na+].[O-]Cl [hypochlorite, sodium hypochlorite]
[3]; 7 days after biomechanical preparation
  endotoxins reduced: 83.2%
[3]; immediately after biomechanical preparation
  endotoxins reduced: 88.8%
[4]
  EC50: 0.95 ± 0.18 µg/mL and 0.99 ± 0.06 µg/mL
[5]
  root canal microorganisms eliminated: 100%
[6]
  NaOCl concentration that completely inhibited the fungal growth: 2.8 mM
